Experimental data reported in US12138256B2, “Treatment of cardiopulmonary disorders” (Bayer Aktiengesellschaft, priority 2021, dated 2024).
Values joined by “and” are separate entries in the source; they are usually repeats but may differ in a detail not shown here. Equal values may be shown once.

Tests used:
[1] = test system: thromboxane analog U46619 induced PAH in minipigs; assay: PAH minipig model: comparison with and on top of standard of care (bosentan, sildenafil, riociguat); assay type: in vivo, Göttingen minipig; conditions: for BP decrease % / PAP decrease %: % change per animal
Excerpt: Efficacy of inhaled comparative example 11 was compared with systemically applied bosentan, sildenafil and riociguat (see FIG. 53a) in the PAH minipig model. […] Therefore inhaled application of comparative example 11 offers clear benefits as systemic effects are avoided, compared to standard of care.

[2] = test system: unilateral broncho-occlusion in anesthetized minipigs; assay: Unilateral broncho-occlusion minipig model: arterial oxygenation as proxy of VQ-mismatch, intrapulmonary selectivity (C-2.3); assay type: in vivo; conditions: for % decrease delta PAP (maximal hypoxic PAP) / % increase AUCSaO2 (unwanted desaturation effect): mean, n = 4
Description: These effects were more pronounced 90 min after inhalation of comparative example 11 (second intervention cycles (inhal)). […] Thus, the mean % changes in maximal hypoxic PAP and associated % changes in area under the oxygen saturation curve [AUCSaO2] were compared (see FIG. 65) within the respective group. As reference cycles in each group, we used cycle 3 for the inhaled applications as well as cycle 4 for the i.v. applications.

plasma proteins [3] = assay: Protein binding via Transil assay, rat plasma; assay type: in vitro ADME; conditions: rat plasma
Excerpt: (§1) The distribution of a test substance between Transil® (phosphatidylcholine lipid bilayers immobilized on silica beads) and plasma is a characteristic feature of any pharmaceutical compound and is dependent on its extent of binding to plasma proteins. By comparing the distribution between Transil® and buffer with the distribution between Transil® and plasma of any species of interest, the unbound fraction in the plasma of the respective animal species can be calculated in vitro. The respective plasma and buffer concentrations were determined via a radioactivity analysis. A detailed description of the method and its validation was published by Schuhmacher et al. (2).

plasma proteins [4] = assay: Protein binding via Transil assay, dog plasma; assay type: in vitro ADME; conditions: dog plasma
Excerpt: as §1

[5] = test system: total specific airway resistance (sRaw); assay: Phase I, healthy male subjects, 7 days inhalation: total specific airway resistance sRaw by bodyplethysmography (C-4.1); assay type: in vivo, human
Description: Healthy White male subjects, aged 18 to 45 years and with a body mass index (BMI) above/equal 18.5 and below/equal 29.9 kg/m2 were treated in a clinical pharmacological phase I study on seven days with inhaled once daily doses of 480 μg or 1000 μg or 2000 μg (2 capsules of 1000 μg) (nominal dose) of dry powder formulations of example 2 or Placebo. The subjects inhaled the drug powder from capsules (see under D-1, e.g. tables 22 and 23) inserted into a handheld inhalation device by one deep inhalative breath. The dry powder formulation of the drug is dispersed into the airstream and fine particles are transported into the deep parts of the lung where it is intended to cause a vasodilation of the blood vessels in PH patients for a substantial reduction of increased blood pressure in the central pulmonary blood vessels in PAH patients or other subtypes of PH. This effect cannot be shown in subjects with healthy lungs. In addition inhaled drug causes a dilation of the bronchial airways and thus also improves disease states of lung diseases in PH patients with pathological bronchoconstriction. This effect was measured via bodyplethysmography as reduction of Specific Airway Resistance in healthy subjects. After the deep inhalative breath the subjects hold breath for 2 seconds, so that the dry powder drug condenses from the airstream onto the surface of the deeper lung areas where it is deposited close to its site of intended pharmacological action. The drug dissolutes over the day and equilibrates the lung via lining fluid.

[6] = 30 μg/kg inhaled on top of Bosentan 1 mg/kg
[7] = 30 μg/kg inhaled on top of Riociguat 3 μg/kg/h
[8] = 30 μg/kg inhaled on top of Sildenafil 300 μg/kg/h
[9] = 30 μg/kg nominal dose inhaled, alone

O=C(O)c1ccc(CCN(CCc2ccccc2OCc2ccc(-c3ccc(C(F)(F)F)cc3)cc2Cl)[C@H]2CCCc3nc(C(=O)O)ccc32)cc1 [comparative example 11, (5S)-5-{[2-(4-carboxyphenyl)ethyl][2-(2-{[3-chloro-4′-(trifluoromethyl)[biphenyl]-4-yl]methoxy}phenyl)ethyl]amino}-5,6,7,8-tetrahydroquinoline-2-carboxylic acid]
BP decrease % [1, 6]: −12.8% and 3.6% | PAP decrease % [1, 6]: −29.7% and −27.1% | BP decrease % [1, 7]: 3.1% and −1.1% and 11.5% | PAP decrease % [1, 7]: −29.7% and −24.2% and −26.3% | BP decrease % [1, 8]: −6.9% and −6.4% and 1.2% | PAP decrease % [1, 8]: −33.6% and −36.9% and −42.8% | BP decrease % [1, 9]: −6.8% and 1.6% and 3.5% | PAP decrease % [1, 9]: −19.9% and −22.8% and −21.7% | BP decrease % ([1]; 100 μg/kg nominal dose inhaled): −4.5% and −9.9% and −3.1% | PAP decrease % ([1]; 100 μg/kg nominal dose inhaled): −33.1% and −45.1% and −38.2% | efficacy regarding PAP on top of bosentan, sildenafil or riociguat ([1]; comparative example 11 30 μg/kg inhaled): maintained its efficacy regarding PAP | time of maximal effects after inhalation ([2]; 100 μg/kg nominal dose inhaled): 90 min | % decrease delta PAP (maximal hypoxic PAP) ([2]; Inhalation I, Cycle 5): 1.8% | % increase AUCSaO2 (unwanted desaturation effect) ([2]; Inhalation I, Cycle 5): −18.6% | % decrease delta PAP (maximal hypoxic PAP) ([2]; Inhalation II, Cycle 6): −19.6% | % increase AUCSaO2 (unwanted desaturation effect) ([2]; Inhalation II, Cycle 6): −39.4% | hypoxia-induced increases in mean pulmonary artery pressure (mPAP) ([2]; after inhaled (cycle 6) as well as i.v. application (cycles 7 and 8)): effectively reduced | BP ([2]; i.v. application, 30 μg/kg and 100 μg/kg): expected drop in BP | desaturation area (AUCSaO2) ([2]; inhaled application, 100 μg/kg nominal dose): did not increase desaturation area | % decrease delta PAP (maximal hypoxic PAP) ([2]; iv Bolus 30 μg): −23.8% | % increase AUCSaO2 (unwanted desaturation effect) ([2]; iv Bolus 30 μg): 48.1% | % decrease delta PAP (maximal hypoxic PAP) ([2]; iv Bolus 100 μg): −14.3% | % increase AUCSaO2 (unwanted desaturation effect) ([2]; iv Bolus 100 μg): 282.8% | desaturation area (AUCSaO2) ([2]; systemic (i.v.) application, 30 and 100 μg/kg): dose dependent increase in desaturation area | fraction unbound, times lower than comparative example 1 (plasma proteins [3]): 1.6 times | fraction unbound, times lower than comparative example 1 (plasma proteins [4]): 10 times

O=C(O)c1ccc(CCN(CCc2ccccc2OCc2ccc(-c3ccc(C(F)(F)F)cc3)cc2Cl)[C@H]2CCCc3nc(C(=O)O)ccc32)cc1 [example 2, (5S)-{[2-(4-Carboxyphenyl)ethyl][2-(2-{[3-chloro-4′-(trifluoromethyl)biphenyl-4-yl]methoxy}phenyl)-ethyl]amino}-5,6,7,8-tetrahydroquinoline-2-carboxylic acid]
total specific airway resistance, mean ± SD ([5]; 480 μg, 0 D 00 H 00 M): 1.078 ± 0.375 kPa/sec | total specific airway resistance, mean ± SD ([5]; 480 μg, 0 D 02 H 00 M): 0.839 ± 0.182 kPa/sec | total specific airway resistance, mean ± SD ([5]; 480 μg, 0 D 06 H 00 M): 0.800 ± 0.187 kPa/sec | total specific airway resistance, mean ± SD ([5]; 480 μg, 2 D 02 H 00 M): 0.883 ± 0.310 kPa/sec | total specific airway resistance, mean ± SD ([5]; 480 μg, 4 D 02 H 00 M): 0.807 ± 0.200 kPa/sec | total specific airway resistance, mean ± SD ([5]; 480 μg, 6 D 04 H 00 M): 0.798 ± 0.193 kPa/sec | total specific airway resistance, mean ± SD ([5]; 480 μg, 7 D 00 H 00 M): 0.823 ± 0.274 kPa/sec | total specific airway resistance, mean ± SD ([5]; 480 μg, 7 D 02 H 00 M): 0.777 ± 0.282 kPa/sec | total specific airway resistance, mean ± SD ([5]; 480 μg, 7 D 06 H 00 M): 0.803 ± 0.280 kPa/sec | total specific airway resistance, mean ± SD ([5]; 480 μg, SCREENING): 0.844 ± 0.327 kPa/sec | total specific airway resistance, mean ± SD ([5]; 480 μg, SCREENING 2): 0.832 ± 0.280 kPa/sec | total specific airway resistance, mean ± SD ([5]; 480 μg, −0 D 18 H 00 M (pretreatment day)): 0.921 ± 0.305 kPa/sec | total specific airway resistance, mean ± SD ([5]; 480 μg, −0 D 22 H 00 M (pretreatment day)): 0.928 ± 0.392 kPa/sec | total specific airway resistance, mean ± SD ([5]; 480 μg, −1 D 00 H 00 M (pretreatment day)): 0.939 ± 0.344 kPa/sec | total specific airway resistance, mean ± SD ([5]; 1000 μg, 0 D 00 H 00 M): 0.967 ± 0.233 kPa/sec | total specific airway resistance, mean ± SD ([5]; 1000 μg, 0 D 02 H 00 M): 0.859 ± 0.143 kPa/sec | total specific airway resistance, mean ± SD ([5]; 1000 μg, 0 D 06 H 00 M): 0.824 ± 0.180 kPa/sec | total specific airway resistance, mean ± SD ([5]; 1000 μg, 2 D 02 H 00 M): 0.797 ± 0.141 kPa/sec | total specific airway resistance, mean ± SD ([5]; 1000 μg, 4 D 02 H 00 M): 0.853 ± 0.172 kPa/sec | total specific airway resistance, mean ± SD ([5]; 1000 μg, 6 D 04 H 00 M): 0.787 ± 0.168 kPa/sec | total specific airway resistance, mean ± SD ([5]; 1000 μg, 7 D 00 H 00 M): 0.917 ± 0.227 kPa/sec | total specific airway resistance, mean ± SD ([5]; 1000 μg, 7 D 02 H 00 M): 0.764 ± 0.140 kPa/sec | total specific airway resistance, mean ± SD ([5]; 1000 μg, 7 D 06 H 00 M): 0.787 ± 0.188 kPa/sec | total specific airway resistance, mean ± SD ([5]; 1000 μg, SCREENING): 0.867 ± 0.376 kPa/sec | total specific airway resistance, mean ± SD ([5]; 1000 μg, SCREENING 2): 1.009 ± 0.340 kPa/sec | total specific airway resistance, mean ± SD ([5]; 1000 μg, −0 D 18 H 00 M (pretreatment day)): 0.901 ± 0.187 kPa/sec | total specific airway resistance, mean ± SD ([5]; 1000 μg, −0 D 22 H 00 M (pretreatment day)): 0.903 ± 0.255 kPa/sec | total specific airway resistance, mean ± SD ([5]; 1000 μg, −1 D 00 H 00 M (pretreatment day)): 0.996 ± 0.194 kPa/sec | total specific airway resistance, mean ± SD ([5]; 2000 μg, 0 D 00 H 00 M): 0.947 ± 0.143 kPa/sec | total specific airway resistance, mean ± SD ([5]; 2000 μg, 0 D 02 H 00 M): 0.677 ± 0.139 kPa/sec | total specific airway resistance, mean ± SD ([5]; 2000 μg, 0 D 06 H 00 M): 0.651 ± 0.149 kPa/sec | total specific airway resistance, mean ± SD ([5]; 2000 μg, 2 D 02 H 00 M): 0.748 ± 0.155 kPa/sec | total specific airway resistance, mean ± SD ([5]; 2000 μg, 4 D 02 H 00 M): 0.709 ± 0.178 kPa/sec | total specific airway resistance, mean ± SD ([5]; 2000 μg, 6 D 04 H 00 M): 0.722 ± 0.168 kPa/sec | total specific airway resistance, mean ± SD ([5]; 2000 μg, 7 D 00 H 00 M): 0.844 ± 0.097 kPa/sec | total specific airway resistance, mean ± SD ([5]; 2000 μg, 7 D 02 H 00 M): 0.716 ± 0.089 kPa/sec | total specific airway resistance, mean ± SD ([5]; 2000 μg, 7 D 06 H 00 M): 0.730 ± 0.151 kPa/sec | total specific airway resistance, mean ± SD ([5]; 2000 μg, SCREENING): 0.899 ± 0.150 kPa/sec | total specific airway resistance, mean ± SD ([5]; 2000 μg, SCREENING 2): 0.957 ± 0.140 kPa/sec | total specific airway resistance, mean ± SD ([5]; 2000 μg, −0 D 18 H 00 M (pretreatment day)): 0.943 ± 0.245 kPa/sec | total specific airway resistance, mean ± SD ([5]; 2000 μg, −0 D 22 H 00 M (pretreatment day)): 0.933 ± 0.165 kPa/sec | total specific airway resistance, mean ± SD ([5]; 2000 μg, −1 D 00 H 00 M (pretreatment day)): 0.962 ± 0.266 kPa/sec | decrease of total specific airway resistance sRaw compared to baseline ([5]; 6 h after first dosing, all dose groups): −0.142 to −0.296 kPa/sec
